Where two headings read alike, the source gives them in different places.
Experiments:
cytochrome c = type: cell-based, mouse; conditions: Conc 20 μM
nuOXPHOS transcripts = type: cell-based, mouse; conditions: Conc 20 μM
[1] = system: cellular dehydrogenase activity
[2] = system: mitochondrial membrane potential; type: cell-based, mouse
mtOXPHOS transcripts = type: cell-based, mouse; conditions: Conc 20 μM
reactive oxygen species = type: cell-based, mouse
OXPHOS gene expression = type: cell-based, mouse; conditions: Conc 20 μM
[3] = normalized composite Z-score vs mock-treated (DMSO) wells
[4] = normalized composite Z-score vs mock-treated (DMSO) wells, Conc 20 μM
[5] = composite Z-score vs mock-treated (DMSO) wells
[6] = composite Z-score vs mock-treated (DMSO) wells, Conc 20 μM
[7] = normalized score vs mock-treated (DMSO) wells
[8] = Conc 20 μM, normalized score vs mock-treated (DMSO) wells
[9] = Table 4, C2C12 myotubes, 48 h, composite Z-score

cytochrome c, sequence (P62897 whole entry): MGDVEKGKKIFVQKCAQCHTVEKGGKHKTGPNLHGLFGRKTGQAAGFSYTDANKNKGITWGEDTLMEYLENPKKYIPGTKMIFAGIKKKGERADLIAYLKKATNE

| Compound | cyt c (cytochrome c; [3]) | nucOX (nuOXPHOS transcripts; [3]) | MTT [1, 4] | Viability (C2C12 myotubes; [4]) | ΔΨm [2, 4] | mitoOX (mtOXPHOS transcripts; [3]) | ROS (reactive oxygen species; [4]) | GE-HTS (OXPHOS gene expression; [3]) | also measured |
| --- | --- | --- | --- | --- | --- | --- | --- | --- | --- |
| COc1cc2c(cc1OC)C1(O)C(=O)c3ccc(O)c(C(=O)O)c3OC1CO2 (centres unmarked) | 0.670 | −0.162 | −0.976 | 0.509 | −0.494 | −0.773 | −0.738 | −0.404 | – |
| COc1cccc2c1CCC1CC(=O)CCC21C (centres unmarked) | 1.307 | −0.900 | −1.068 | −0.060 | 1.124 | −0.612 | −0.109 | −0.872 | – |
| CC1(C)C2CC(=O)[C@]3(C)C(CC[C@@]4(C)[C@H](c5ccoc5)OC(=O)[C@H]5O[C@]543)[C@@]2(C)C(=O)C[C@H]1O (some centres unmarked) | 0.113 | −0.866 | −1.103 | −0.023 | −0.335 | −0.875 | 0.122 | −0.911 | – |
| COC1CC(C)C2OC2CC(C)C2CC(C)(C)C12 (centres unmarked) | 0.933 | −0.466 | −0.794 | −1.011 | −0.699 | −0.439 | 0.120 | −0.497 | – |
| C=C1CCC(C2CC(=O)OC2=O)C(=O)CCC2C1CC2(C)C (centres unmarked) | 0.345 | −1.009 | −0.968 | −0.749 | −0.249 | −1.046 | 0.012 | −1.109 | – |
| COc1ccc2c(c1)C1(C)CCC(=O)CC1CC2 (centres unmarked) | 0.380 | −0.582 | −2.008 | −0.071 | −0.173 | −0.652 | 1.860 | −0.632 | – |
| 1,2alpha-epoxydeacetoxydihydrogedunin | −0.224 | −1.080 | −2.000 | 0.074 | 0.210 | −0.468 | 3.350 | −0.921 | – |
| 2-hydroxy-5 (6)epoxy-tetrahydrocaryophyllene | 0.236 | −0.447 | −0.836 | −0.772 | −0.739 | −0.043 | 0.074 | −0.347 | – |
| 3,7-epoxycaryophyllan-6-one | 0.131 | −0.824 | −0.698 | 0.433 | −1.003 | −0.595 | 0.603 | −0.812 | – |
| 3-deoxo-3beta-acetoxydeoxydihydrogedunin | – | – | – | – | – | – | – | – | cyt c (cytochrome c; [5]): 0.398; nucOX (nuOXPHOS transcripts; [5]): −0.791; MTT [1, 6]: −1.633; Viability (C2C12 myotubes; [6]): 1.066; ΔΨm [2, 6]: 1.215; mitoOX (mtOXPHOS transcripts; [5]): −0.559; ROS (reactive oxygen species; [6]): 1.249; GE-HTS (OXPHOS gene expression; [5]): −0.742 |
| 3-deoxo-3beta-hydroxymexicanolide 16-enol ether | – | – | – | – | – | – | – | – | cyt c (cytochrome c; [5]): −0.040; nucOX (nuOXPHOS transcripts; [5]): −0.247; MTT [1, 6]: −1.922; Viability (C2C12 myotubes; [6]): 0.290; ΔΨm [2, 6]: −0.059; mitoOX (mtOXPHOS transcripts; [5]): −0.133; ROS (reactive oxygen species; [6]): 1.279; GE-HTS (OXPHOS gene expression; [5]): −0.203 |
| 3-nor-3-oxopanasinsan-6-ol | 0.864 | −0.831 | −0.492 | 0.209 | −0.006 | 0.004 | 0.172 | −0.605 | – |
| 3alpha-hydroxy-3-deoxyangolensic acid methyl ester | – | – | – | – | – | – | – | – | cyt c (cytochrome c; [5]): −0.141; nucOX (nuOXPHOS transcripts; [5]): −0.474; MTT [1, 6]: −1.268; Viability (C2C12 myotubes; [6]): 0.949; ΔΨm [2, 6]: −0.043; mitoOX (mtOXPHOS transcripts; [5]): −0.377; ROS (reactive oxygen species; [6]): 0.799; GE-HTS (OXPHOS gene expression; [5]): −0.456 |
| 3beta-chloroandrostanone | – | – | – | – | – | – | – | – | cyt c (cytochrome c; [5]): 1.021; nucOX (nuOXPHOS transcripts; [5]): −1.192; MTT [1, 6]: −1.203; Viability (C2C12 myotubes; [6]): −0.424; ΔΨm [2, 6]: −0.860; mitoOX (mtOXPHOS transcripts; [5]): −0.907; ROS (reactive oxygen species; [6]): −0.077; GE-HTS (OXPHOS gene expression; [5]): −1.190 |
| 3beta-hydroxydeoxydesacetoxy-7-oxogedunin | – | – | – | – | – | – | – | – | cyt c (composite Z-score) (cytochrome c; [7]): 0.306; nucOX (composite Z-score) (nuOXPHOS transcripts; [7]): −1.027; MTT (composite Z-score) [1, 8]: −0.615; Viability (composite Z-score) (C2C12 myotubes; [8]): 0.688; ΔΨm (composite Z-score) [2, 8]: −0.064; mitoOX (composite Z-score) (mtOXPHOS transcripts; [7]): −0.319; ROS (composite Z-score) (reactive oxygen species; [8]): 0.662; GE-HTS (composite Z-score) (OXPHOS gene expression; [7]): −0.864 |
| 7-deshydroxypyrogallin-4-carboxylic acid | – | – | – | – | – | – | – | – | cyt c (cytochrome c; [5]): 0.419; nucOX (nuOXPHOS transcripts; [5]): −1.039; MTT [1, 6]: −0.460; Viability (C2C12 myotubes; [6]): 0.121; ΔΨm [2, 6]: −1.109; mitoOX (mtOXPHOS transcripts; [5]): −0.770; ROS (reactive oxygen species; [6]): −0.210; GE-HTS (OXPHOS gene expression; [5]): −0.997 |
| 12a-hydroxy-5-deoxydehydromunduserone [reference compound] | −0.179 | 0.193 | −1.976 | −0.940 | −0.179 | 0.239 | 0.823 | 0.211 | MTT [1, 9]: −1.976; Viability (C2C12 myotubes; [9]): −0.940; ΔΨm ([2]; Table 4, C2C12 myotubes, 48 h, JC-1, composite Z-score): −0.179; ROS (reactive oxygen species; [9]): 0.823 |

Reference: US20090143279A1 (priority 2007, published 2009)
